Consider one compound from patent US20080194628A1, “Donepezil Salts Suitable for the Preparation of Pharmaceutical Compositions” (priority 2004, published 2008).

The conditions of the data set: comparison with donepezil hydrochloride tablet.

`COc1cc2c(cc1OC)C(=O)C(CC1CCN(Cc3ccccc3)CC1)C2.O=S(=O)(O)O` (stereo not shown) [Example 12, donepezil sulfate (1:1)]: the “Stability of tablets prepared from the salt, compared with the tablet prepared from the hydrochloride salt” value is recorded as “practically identical to that of the tablet prepared from the hydrochloride salt”.
